Test system: ncRNAs (SEQ ID NO 28-89)
Experiment: ncRNA arrays of melanocytes, keratinocytes, normal skin, melanoma cell lines and patient samples
Parameters: species or system human
Conditions: for ncRNA array expression, patient 2: melanoma patient 2 sample compared to normal skin; for ncRNA array expression, patient 3: melanoma patient 3 sample compared to normal skin; for ncRNA array expression, patient 4: melanoma patient 4 sample compared to normal skin; for ncRNA array expression, patient 5: melanoma patient 5 sample compared to normal skin; for ncRNA array expression, patient 6: melanoma patient 6 sample compared to normal skin; for ncRNA array expression, patient 7: melanoma patient 7 sample compared to normal skin; for ncRNA array expression, patient 8: melanoma patient 8 sample compared to normal skin; for ncRNA array expression, patient 9: melanoma patient 9 sample compared to normal skin; for ncRNA array expression, patient 10: melanoma patient 10 sample compared to normal skin; for ncRNA array expression, patient 19: melanoma patient 19 sample compared to normal skin; for ncRNA array expression, patient 20: melanoma patient 20 sample compared to normal skin; for ncRNA array expression, patient 21: melanoma patient 21 sample compared to normal skin; for ncRNA array expression, patient 22: melanoma patient 22 sample compared to normal skin; for ncRNA array expression, patient 23: melanoma patient 23 sample compared to normal skin; for ncRNA array expression, patient 24: melanoma patient 24 sample compared to normal skin; for ncRNA array expression, patient 25: melanoma patient 25 sample compared to normal skin; for ncRNA array expression, patient 26: melanoma patient 26 sample compared to normal skin; for ncRNA array expression, patient 27: melanoma patient 27 sample compared to normal skin; for ncRNA array expression, patient 28: melanoma patient 28 sample compared to normal skin; for ncRNA array expression, patient 29: melanoma patient 29 sample compared to normal skin; for ncRNA array expression, patient 30: melanoma patient 30 sample compared to normal skin
Procedure, shortened: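 Total RNA from melanocytes, keratinocytes, normal human skin, melanoma cell lines and melanoma patient samples was profiled on an array of >10,000 putative (>200 nt) human and mouse ncRNAs plus RefSeq mRNA probes. Expression was compared with melanocytes or normal skin, keratinocyte signatures were subtracted, and hits were validated by qRT-PCR and Northern blot.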

Substance	ncRNA array expression, patient 2	ncRNA array expression, patient 3	ncRNA array expression, patient 4	ncRNA array expression, patient 5	ncRNA array expression, patient 6	ncRNA array expression, patient 7	ncRNA array expression, patient 8	ncRNA array expression, patient 9	ncRNA array expression, patient 10	ncRNA array expression, patient 19	ncRNA array expression, patient 20	ncRNA array expression, patient 21	ncRNA array expression, patient 22	ncRNA array expression, patient 23	ncRNA array expression, patient 24	ncRNA array expression, patient 25	ncRNA array expression, patient 26	ncRNA array expression, patient 27	ncRNA array expression, patient 28	ncRNA array expression, patient 29	further results
SEQ ID NO 78 (ATGGAAAGGCCAGGGGAGGGTGGAGCTCAGGAGTGGAAGCACAGGGACTAAGGCCTGAGC; listed as DNA, chemistry not given here; listed as Homo sapiens)	−3.7	−3.634	−3.593	−3.41	−1.8308	−3.861	−3.607	−3.9856	−3.496	−2.807	−3.82	−3.781	−1.089	−1.0414	−3.419	−3.518	−3.351	−3.653	−3.215	−3.656	ncRNA array expression, patient 30: 1.597
SEQ ID NO 30 (ATTCCAAGGCCTATTAAAATTTCTGAGCATTGCCCATTTCTTTTGCTTTATCTGTAGGAC; DNA, backbone and methylation of C not given here; listed as Homo sapiens)	4.3	3.169	2.472	3.84	2.191	4.639	2.888	0.4508	3.549	0.5363	1.367	3.468	1.187	0.3079	−1.318	1.316	2.451	4.706	0.8038	4.757	ncRNA array expression, patient 30: 1.117
SEQ ID NO 85 (TGAGGGGAGAGGGGATGGGAAACATTAGGGCTGGGTTCATGTAAAGGGACCAGCATTGTG; listed as DNA, chemistry not given here; listed as Homo sapiens)	−3.042	−2.236	−3.353	−3.144	−1.878	−3.331	−3.241	−3.15	−2.88	−2.497	−3.4136	−3.4	−1.235	−0.784	−3.14	−3.2	−3.139	−3.328	−3.261	−3.3212	ncRNA array expression, patient 30: 0.6346

Reference: US20110143948A1, “MOLECULAR SIGNATURES AND BIOMARKERS ASSOCIATED WITH MELANOMA AND METHODS OF USE THEREOF” (priority 2008, published 2011)
